The source of these data is ChEMBL document CHEMBL1201862, “PubChem BioAssay data set” (2004).

Structures are written as SMILES. Where “and” joins values, the source holds several entries; their conditions need not be identical. Equal values may be shown once.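 Values below derive from 48-hour exposures of cells grown in 96-well plates, with endpoints linearly interpolated between the two concentrations bracketing the appropriate inhibition level. Abbreviation: GI50, concentration required for 50% inhibition of growth.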 Calls of active or inactive are those of the source. No stated cut-off is given here; in the data, active = GI50 up to about 1.1 µM and inactive = higher.

Test systems include 786-0; A498; ACHN; BT-549; CAKI-1; Hs-578T; K562; LOX IMVI; NCI-H226; NCI-H460; NCI-H522; NCI/ADR-RES; OVCAR-4; SF-268; SF-295; SK-OV-3; SN12C; TK-10; U-251; MCF7.
What all share (test): inhibition of tumour cell growth, NCI panel, 48 h

On to `c1nc(NCCc2c[nH]cn2)c2nc[nH]c2n1`, for which the GI50 with 786-0, with A498, in the test with ACHN, with BT-549, in the test on CAKI-1 and in the test with Hs-578T was > 100 µM (inactive) in each case. Also, the GI50 was > 100 µM (inactive) in the test with K562; > 100 µM (inactive) in the test with LOX IMVI; 91.6 µM (inactive) with NCI-H226; > 100 µM (inactive) in the test with NCI-H460; > 100 µM (inactive) in the test on NCI-H522; > 100 µM (inactive) with NCI/ADR-RES. Moreover, the GI50 in the test on OVCAR-4, with SF-268, with SF-295, in the test on SK-OV-3, in the test on SN12C and in the test on TK-10 was > 100 µM (inactive) throughout. For the same molecule, the GI50 with U-251 was > 100 µM (inactive).

Regarding `Cc1nc(=O)[nH]c(NCCNCCO)c1C(=O)Nc1cccc2cc3ccccc3cc12`, the GI50 in the test on 786-0, in the test with A498, with ACHN, with BT-549, with CAKI-1 and in the test with Hs-578T was > 100 µM (inactive) each time. The GI50 with K562, with LOX IMVI, in the test with NCI-H226, in the test on NCI-H460, in the test on NCI-H522 and in the test on NCI/ADR-RES was > 100 µM (inactive) in each case. For the same molecule, the GI50 in the test with OVCAR-4, in the test on SF-268, in the test on SF-295, with SN12C, with TK-10 and with U-251 was > 100 µM (inactive) throughout.

For the molecule `CCN(CC)c1ccc(NC(=S)NN(C)C)cc1`, the GI50 in the test on 786-0, in the test on A498, in the test on ACHN, with CAKI-1, with Hs-578T and in the test with K562 was > 10 µM (inactive) each time. Further, the GI50 in the test on LOX IMVI, with MCF7, with NCI-H226, in the test on NCI-H460, with NCI-H522 and in the test on NCI/ADR-RES was > 10 µM (inactive) each time. Also, the GI50 with OVCAR-4, in the test with SF-268, in the test on SF-295, in the test with SK-OV-3, in the test on SN12C and in the test on TK-10 was > 10 µM (inactive) throughout. Also, in the test on U-251, the GI50 is > 10 µM (inactive).

For the molecule `CCOC(=O)c1ccc(-c2ccc(Cl)cc2)[nH]1`, the GI50 with 786-0 was > 10 µM (inactive); with ACHN, > 10 µM (inactive); in the test on BT-549, > 10 µM (inactive); in the test on Hs-578T, > 10 µM (inactive); in the test on K562 it was > 10 µM (inactive); in the test on NCI-H226, 8.47 µM (inactive). The GI50 with NCI-H460, in the test on NCI-H522, with NCI/ADR-RES, in the test with OVCAR-4, in the test with SF-268 and in the test on SF-295 was > 10 µM (inactive) each time. The GI50 in the test on SK-OV-3, in the test on SN12C, with TK-10 and in the test with U-251 was > 10 µM (inactive) in each case.

For the molecule `C/C(=N\O)c1ccc(OCc2cc(C(F)(F)F)cc(C(F)(F)F)c2)cc1`, the GI50 is 41.2 µM (inactive) with 786-0; > 100 µM (inactive) with A498; 25.5 µM (inactive) with ACHN; 78.2 µM (inactive) with CAKI-1; 37.8 µM (inactive) with Hs-578T; 33 µM (inactive) with K562. Further, the GI50 in the test on LOX IMVI is 39 µM (inactive); in the test on MCF7, 20 µM (inactive); with NCI-H226 it was 40.6 µM (inactive); in the test on NCI-H460, 23.4 µM (inactive); in the test on NCI-H522, 38.1 µM (inactive); in the test with NCI/ADR-RES, 61.2 µM (inactive). Further, the GI50 was 53.8 µM (inactive) in the test with OVCAR-4; 43.2 µM (inactive) in the test with SF-268; 55.2 µM (inactive) with SF-295; > 100 µM (inactive) in the test with SK-OV-3; 46.2 µM (inactive) with SN12C; > 100 µM (inactive) in the test on TK-10. Also, the GI50 in the test with U-251 was 34.4 µM (inactive).

Turning to `COC(=O)c1ccccc1/C=C1/Cc2ccccc2C1=O`, the GI50 in the test on 786-0 is > 10 µM (inactive); in the test with A498, > 100 µM (inactive); in the test on ACHN, 39.2 µM (inactive); in the test on CAKI-1 it was 25.8 µM (inactive); in the test on Hs-578T, 30.9 µM (inactive); in the test on K562, 32.7 µM (inactive). In addition, the GI50 in the test with LOX IMVI was 17.8 µM (inactive); with MCF7 it was 11.5 µM (inactive); in the test with NCI-H226, 63.8 µM (inactive); in the test on NCI-H460, > 100 µM (inactive); with NCI-H522 it was 31.7 µM (inactive); in the test with NCI/ADR-RES, 36.5 µM (inactive). Further, the GI50 in the test on OVCAR-4 is 34.4 µM (inactive); with SF-268 it was > 100 µM (inactive); with SF-295 it was 44.1 µM (inactive); in the test on SK-OV-3, > 100 µM (inactive); in the test with SN12C, 17.4 µM (inactive); with TK-10, > 100 µM (inactive). In addition, the GI50 in the test with U-251 was 29.7 µM (inactive).

For the molecule `CS(=O)(=O)c1ccc(NNc2cc(=O)[nH]c(=O)[nH]2)cc1`, the GI50 in the test on 786-0 was > 100 µM (inactive); with A498, > 100 µM (inactive); in the test on ACHN it was > 100 µM (inactive); in the test with BT-549 it was > 100 µM (inactive); with CAKI-1, > 10 µM (inactive); with Hs-578T, > 100 µM (inactive). The GI50 in the test with K562 is > 100 µM (inactive); in the test on LOX IMVI, > 100 µM (inactive); in the test on NCI-H226, > 100 µM (inactive); with NCI-H460, > 100 µM (inactive); in the test with NCI-H522, 21.7 µM (inactive); in the test with NCI/ADR-RES, > 100 µM (inactive). Further, the GI50 is > 100 µM (inactive) in the test with OVCAR-4; > 100 µM (inactive) in the test on SF-268; > 100 µM (inactive) with SF-295; > 100 µM (inactive) in the test with SK-OV-3; > 100 µM (inactive) with SN12C; 0.0155 µM (active) with TK-10. For the same molecule, the GI50 in the test with U-251 was > 100 µM (inactive).

For the molecule `COc1ccc(C2c3cc4c(cc3OC(NNc3ccccc3)C2C)OCO4)cc1` (configuration not stated), the GI50 in the test with 786-0 was 22.1 µM (inactive); in the test with A498 it was 17.2 µM (inactive); with ACHN, 1.93 µM (inactive); with BT-549, 20.4 µM (inactive); in the test on CAKI-1 it was 5.89 µM (inactive); with Hs-578T it was 16.1 µM (inactive). Besides, the GI50 was 1.7 µM (inactive) in the test with K562; 16.6 µM (inactive) in the test with LOX IMVI; 4.04 µM (inactive) with MCF7; 16.3 µM (inactive) in the test with NCI-H226; 3.57 µM (inactive) in the test on NCI-H460; 2.77 µM (inactive) in the test with NCI-H522. For the same molecule, the GI50 in the test on SF-268 is 20.3 µM (inactive); in the test on SF-295 it was 2.08 µM (inactive); in the test on SK-OV-3, > 100 µM (inactive); with SN12C, 11 µM (inactive); in the test with TK-10 it was 8.97 µM (inactive); with U-251, 7.35 µM (inactive).

For `CO[C@@H]1C[C@H]2[C@@H]3CC[C@H]([C@@H](C)CO)[C@@]3(C)CC[C@@H]2[C@@]2(C)CC[C@H]3C[C@]312`, the GI50 in the test with 786-0 is 42.1 µM (inactive); with A498 it was > 100 µM (inactive); with ACHN it was 26.5 µM (inactive); with CAKI-1, 89.7 µM (inactive); in the test on Hs-578T it was 27.2 µM (inactive); with K562 it was 22.8 µM (inactive). The GI50 in the test on LOX IMVI is 19.3 µM (inactive); in the test with MCF7, 16.2 µM (inactive); in the test with NCI-H226, 24.4 µM (inactive); in the test with NCI-H460, 20.9 µM (inactive); in the test on NCI-H522 it was 19.7 µM (inactive); in the test on NCI/ADR-RES it was 24.9 µM (inactive). The GI50 with OVCAR-4 is 33.2 µM (inactive); in the test with SF-268 it was 67 µM (inactive); in the test with SF-295, 30.5 µM (inactive); in the test with SN12C, 33 µM (inactive); in the test with TK-10, > 100 µM (inactive); with U-251, 14.6 µM (inactive).

As to `COc1ccc(-c2c(C#N)c(N)n(C3OC(CO)C(O)C(O)C3O)c(=S)c2C#N)cc1` (configuration not stated), the GI50 was > 100 µM (inactive) with 786-0; > 100 µM (inactive) and 52.6 µM (inactive) in the test on A498; 87.9 µM (inactive) and 97.3 µM (inactive) in the test on ACHN; > 100 µM (inactive) and 76.9 µM (inactive) with BT-549; > 100 µM (inactive) with CAKI-1; 21.7 µM (inactive) in the test with Hs-578T. For the same molecule, the GI50 in the test on K562 was > 100 µM (inactive); in the test with LOX IMVI it was > 100 µM (inactive) and 77.4 µM (inactive); with NCI-H226, > 100 µM (inactive); in the test on NCI-H460, 97.1 µM (inactive); with OVCAR-4, > 100 µM (inactive) and 67.9 µM (inactive); in the test with SF-268 it was > 100 µM (inactive). Further, the GI50 in the test on SK-OV-3, with SN12C, in the test with TK-10 and with U-251 was > 100 µM (inactive) each time.

On to `O=[N+]([O-])c1cccc(/N=N/c2c(O)ccc3ccccc23)c1`, for which the GI50 in the test with 786-0 was 69.7 µM (inactive); in the test on A498, > 100 µM (inactive); in the test with BT-549 it was 43.8 µM (inactive); in the test on CAKI-1 it was > 100 µM (inactive); in the test with Hs-578T, 49.5 µM (inactive); with K562 it was 69 µM (inactive). For the same molecule, the GI50 in the test with LOX IMVI is > 100 µM (inactive); with NCI-H522, 45.1 µM (inactive); in the test with NCI/ADR-RES, 70 µM (inactive); with OVCAR-4 it was 66.8 µM (inactive); with SF-268, 51.4 µM (inactive); in the test on SF-295, 31 µM (inactive). In addition, the GI50 was 35.2 µM (inactive) in the test on SK-OV-3, > 100 µM (inactive) with SN12C, 44.7 µM (inactive) in the test with TK-10 and 19.6 µM (inactive) in the test with U-251.
